Results as given in patent US6537770B1, “Assay for detecting phospho-N-acetylmuramyl-pentapeptide translocase activity” (priority 1999, dated 2003).

Assays:
[1] = molecular target: T1, translocase enzyme (Escherichia coli membranes) (Escherichia coli, UniProt P0A6W3); experiment: reversal of the translocase reaction (Lipid I back to the water soluble precursor) on addition of UMP; format: biochemical; conditions: 1 μM UMP added after 10 minutes reaction, stopped after about 3-4 minutes
T1 construct: The membranes are prepared from spheroplast pellets which are commercially available; Each pellet contains a certain amount of E. coli Hfr H; endogenous in cells; host or cells: E. coli Hfr H membranes, prepared from commercially available spheroplast pellets
Excerpt: The reaction catalysed by the enzyme translocase is known to be reversible. To show the reversible reaction, the enzyme reaction was continued for 10 mintues to form the radioactive product, undecaprenol-pyrophosphate-[2,3-^3H]propionate-N-acetylmuramylpentapeptide, Lipid I. This is seperated from its organic phase. Once the radioactive product is formed one set of reactions is stopped using the 2:1 pyridinium acetate and n-butanol mixture as described before. In a parallel set of reactions, 1 μM UMP is added. The reaction is then stopped after about 3-4 minutes. The lipid fraction can be extracted from both the sets of reactions. […] This indicates the reversal of Lipid I to the water soluble precursor.

[2] = molecular target: T1, translocase enzyme (Escherichia coli membranes); experiment: phospho-N-acetylmuramyl-pentapeptide translocase assay with 3H-propionated UDP-MPP, butanol extraction and scintillation counting; format: biochemical; conditions: Tunicamycin at 0.3 μg/ml; FIG. 2
Experimental: Eppendorf tubes were individually filled with a total of 40 μl of the reaction mixture each, initially. The reaction mixture consisted of an aqueous buffer solution of 100 mM Tris-HCl (Tris[hydroxymethyl]aminomethane hydrochloride), 25 mM magnesium chloride, 50 Mm of potassium chloride, 0.1% w/v Triton X-100, 8 μM of propionated non-radioactive UDP-MPP, 2 μM of ^3H-propionated UDP-MPP at room temperature, 10 μl of the enzyme at a concentration of 5 μg per ml and 17.5 μl of water. To this a solution of a test compound (e.g. Tunicamycin) of varying concentration is added. […] The reaction commences with the addition of the enzyme.
The Escherichia coli membranes, which serve as a source of the enzyme, were prepared in the following manner.
The membranes are prepared from spheroplast pellets which are commercially available. Each pellet contains a certain amount of E. coli Hfr H. The pellet is thawed overnight at 4° C. The pellet is weighed and the figure is multiplied by 7.5. […] The pellet is again resuspended in the same volume of 50 mM Tris-HCl buffer solution of pH 7.5 as calculated in the previous paragraph, containing, 20 μg/ml DNAse, 20 μg/ml RNAse, 1 mM magnesium chloride and 1 mM β-mercapto ethanol. […]
The product is extracted with saturated n-butanol and washed with 50 μl of water. It is then counted, 25-50 μl at a time on a scintillation counter.

T1 sequence (P0A6W3 whole entry): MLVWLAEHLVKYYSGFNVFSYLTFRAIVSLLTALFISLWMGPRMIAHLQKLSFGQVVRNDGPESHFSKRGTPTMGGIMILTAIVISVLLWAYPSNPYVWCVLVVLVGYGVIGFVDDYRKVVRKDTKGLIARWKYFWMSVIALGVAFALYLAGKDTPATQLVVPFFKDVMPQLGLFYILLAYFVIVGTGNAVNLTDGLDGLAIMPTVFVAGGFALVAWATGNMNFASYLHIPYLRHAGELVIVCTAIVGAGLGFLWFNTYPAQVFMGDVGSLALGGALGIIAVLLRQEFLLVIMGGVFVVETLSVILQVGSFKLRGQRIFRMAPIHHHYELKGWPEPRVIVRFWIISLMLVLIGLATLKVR

| Compound | radioactive count in the organic phase (Lipid I) [1] | inhibition of translocase (rate, cpm versus time compared with control) [2] |
| --- | --- | --- |
| O=c1ccn([C@@H]2O[C@H](COP(=O)(O)O)[C@@H](O)[C@H]2O)c(=O)[nH]1 [UMP] | reduced to basal levels | – |
| Tunicamycin | – | antagonist of the translocase enzyme |
